Article doi:10.1101/706168v1 (biorxiv, 2019)

How the values were obtained:
Experiment in all cases: cell-based
[1] = target: T1, TWIK2 (Homo sapiens, UniProt Q9Y257)
T1 sequence (Q9Y257 1-313): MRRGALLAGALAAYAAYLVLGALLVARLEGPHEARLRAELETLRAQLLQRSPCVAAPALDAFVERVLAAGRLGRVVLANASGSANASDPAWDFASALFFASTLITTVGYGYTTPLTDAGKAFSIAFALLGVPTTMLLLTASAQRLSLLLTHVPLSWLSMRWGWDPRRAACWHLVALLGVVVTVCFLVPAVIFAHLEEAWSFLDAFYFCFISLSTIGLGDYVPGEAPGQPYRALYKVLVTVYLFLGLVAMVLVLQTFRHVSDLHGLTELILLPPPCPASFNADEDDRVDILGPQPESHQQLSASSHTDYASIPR

[2] = target: Nav1.5 (Homo sapiens, UniProt Q14524)
[3] = target: TRPA1 (Homo sapiens, UniProt O75762)
Chain of TRPA1 (O75762 whole entry): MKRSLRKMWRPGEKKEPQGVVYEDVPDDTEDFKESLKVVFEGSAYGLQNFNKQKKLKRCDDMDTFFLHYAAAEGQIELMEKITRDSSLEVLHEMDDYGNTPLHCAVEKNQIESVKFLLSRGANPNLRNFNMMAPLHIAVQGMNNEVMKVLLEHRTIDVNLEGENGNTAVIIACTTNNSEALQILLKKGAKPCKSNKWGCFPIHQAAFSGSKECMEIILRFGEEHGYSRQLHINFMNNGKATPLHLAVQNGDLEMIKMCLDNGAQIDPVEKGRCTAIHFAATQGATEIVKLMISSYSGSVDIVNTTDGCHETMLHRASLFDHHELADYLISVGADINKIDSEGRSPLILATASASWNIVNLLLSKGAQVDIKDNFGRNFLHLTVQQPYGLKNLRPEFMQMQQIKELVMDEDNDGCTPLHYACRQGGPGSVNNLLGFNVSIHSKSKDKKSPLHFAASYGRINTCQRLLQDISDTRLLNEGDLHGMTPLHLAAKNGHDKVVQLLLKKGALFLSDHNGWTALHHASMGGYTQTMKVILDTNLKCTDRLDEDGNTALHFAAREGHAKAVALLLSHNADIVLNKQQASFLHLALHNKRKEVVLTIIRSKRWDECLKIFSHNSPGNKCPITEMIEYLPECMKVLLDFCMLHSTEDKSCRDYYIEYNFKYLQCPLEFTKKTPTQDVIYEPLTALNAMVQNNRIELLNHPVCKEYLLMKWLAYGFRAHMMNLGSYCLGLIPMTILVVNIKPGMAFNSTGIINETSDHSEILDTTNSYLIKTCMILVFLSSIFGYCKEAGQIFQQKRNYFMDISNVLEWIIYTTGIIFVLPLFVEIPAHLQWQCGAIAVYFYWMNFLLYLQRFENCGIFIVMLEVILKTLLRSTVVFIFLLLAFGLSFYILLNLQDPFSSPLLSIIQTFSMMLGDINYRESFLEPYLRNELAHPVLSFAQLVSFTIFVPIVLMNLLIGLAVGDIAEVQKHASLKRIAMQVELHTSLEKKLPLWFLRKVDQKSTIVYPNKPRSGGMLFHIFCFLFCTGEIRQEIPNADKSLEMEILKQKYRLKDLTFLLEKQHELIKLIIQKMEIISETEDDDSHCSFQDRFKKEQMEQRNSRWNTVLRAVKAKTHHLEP

[4] = target: Kv1.5 (Homo sapiens, UniProt P22460)
Chain of Kv1.5 (P22460 whole entry): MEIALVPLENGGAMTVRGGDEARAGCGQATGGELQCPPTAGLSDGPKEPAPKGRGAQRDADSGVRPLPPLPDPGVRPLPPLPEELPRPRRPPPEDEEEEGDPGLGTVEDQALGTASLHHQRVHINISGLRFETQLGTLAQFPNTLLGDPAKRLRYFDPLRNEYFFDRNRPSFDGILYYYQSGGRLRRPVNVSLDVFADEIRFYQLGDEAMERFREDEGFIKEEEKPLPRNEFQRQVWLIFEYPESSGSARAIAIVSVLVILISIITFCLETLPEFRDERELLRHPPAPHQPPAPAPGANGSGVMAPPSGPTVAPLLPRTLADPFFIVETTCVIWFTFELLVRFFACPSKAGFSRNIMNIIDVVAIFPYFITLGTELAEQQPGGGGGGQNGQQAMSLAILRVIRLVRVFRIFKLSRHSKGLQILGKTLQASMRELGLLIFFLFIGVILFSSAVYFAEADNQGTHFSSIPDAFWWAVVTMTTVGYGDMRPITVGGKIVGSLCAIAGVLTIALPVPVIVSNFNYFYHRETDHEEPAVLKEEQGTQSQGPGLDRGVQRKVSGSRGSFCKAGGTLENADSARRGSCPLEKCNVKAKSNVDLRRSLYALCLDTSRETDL

[5] = target: T2, TRESK (Homo sapiens, UniProt Q7Z418)
T2 sequence (Q7Z418 1-384): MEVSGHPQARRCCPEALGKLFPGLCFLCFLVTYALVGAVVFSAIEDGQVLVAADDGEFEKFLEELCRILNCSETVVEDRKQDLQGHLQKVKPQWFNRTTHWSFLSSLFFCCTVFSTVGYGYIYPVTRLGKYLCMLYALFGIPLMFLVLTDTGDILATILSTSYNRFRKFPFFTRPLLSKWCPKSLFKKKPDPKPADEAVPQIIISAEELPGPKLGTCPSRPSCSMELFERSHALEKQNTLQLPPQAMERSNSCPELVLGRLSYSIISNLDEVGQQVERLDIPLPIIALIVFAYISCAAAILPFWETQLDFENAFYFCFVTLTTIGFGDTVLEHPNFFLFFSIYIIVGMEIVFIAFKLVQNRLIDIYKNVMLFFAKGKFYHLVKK

[6] = target: T3, TRPC5 (Homo sapiens, UniProt Q9UL62)
T3 sequence (Q9UL62 1-973): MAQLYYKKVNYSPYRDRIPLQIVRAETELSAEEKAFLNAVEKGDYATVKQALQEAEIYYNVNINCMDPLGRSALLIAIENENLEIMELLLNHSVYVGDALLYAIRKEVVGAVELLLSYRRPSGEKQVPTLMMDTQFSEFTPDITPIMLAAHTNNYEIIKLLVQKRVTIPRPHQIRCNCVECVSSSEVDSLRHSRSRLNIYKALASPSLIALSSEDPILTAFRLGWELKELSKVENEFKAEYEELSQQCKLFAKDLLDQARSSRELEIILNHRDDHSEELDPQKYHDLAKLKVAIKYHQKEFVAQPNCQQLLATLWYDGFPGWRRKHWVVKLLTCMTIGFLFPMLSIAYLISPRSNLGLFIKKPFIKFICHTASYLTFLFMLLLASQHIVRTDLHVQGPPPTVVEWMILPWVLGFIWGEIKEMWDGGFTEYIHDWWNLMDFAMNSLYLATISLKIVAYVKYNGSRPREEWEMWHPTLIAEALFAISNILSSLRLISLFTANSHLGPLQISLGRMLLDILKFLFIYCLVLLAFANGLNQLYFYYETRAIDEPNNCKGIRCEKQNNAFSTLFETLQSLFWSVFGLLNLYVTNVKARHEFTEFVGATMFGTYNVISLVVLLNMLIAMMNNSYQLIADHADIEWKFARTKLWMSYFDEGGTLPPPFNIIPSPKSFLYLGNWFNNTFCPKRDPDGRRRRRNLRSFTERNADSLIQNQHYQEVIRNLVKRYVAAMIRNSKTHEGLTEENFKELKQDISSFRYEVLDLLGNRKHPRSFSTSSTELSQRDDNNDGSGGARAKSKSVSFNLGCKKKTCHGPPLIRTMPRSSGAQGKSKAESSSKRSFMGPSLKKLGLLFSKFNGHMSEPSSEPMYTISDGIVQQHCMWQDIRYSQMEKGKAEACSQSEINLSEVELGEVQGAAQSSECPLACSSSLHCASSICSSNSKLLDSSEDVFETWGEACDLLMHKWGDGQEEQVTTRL

[7] = target: Cav1.2 (Homo sapiens, UniProt Q13936)
Chain of Cav1.2 (Q13936 whole entry): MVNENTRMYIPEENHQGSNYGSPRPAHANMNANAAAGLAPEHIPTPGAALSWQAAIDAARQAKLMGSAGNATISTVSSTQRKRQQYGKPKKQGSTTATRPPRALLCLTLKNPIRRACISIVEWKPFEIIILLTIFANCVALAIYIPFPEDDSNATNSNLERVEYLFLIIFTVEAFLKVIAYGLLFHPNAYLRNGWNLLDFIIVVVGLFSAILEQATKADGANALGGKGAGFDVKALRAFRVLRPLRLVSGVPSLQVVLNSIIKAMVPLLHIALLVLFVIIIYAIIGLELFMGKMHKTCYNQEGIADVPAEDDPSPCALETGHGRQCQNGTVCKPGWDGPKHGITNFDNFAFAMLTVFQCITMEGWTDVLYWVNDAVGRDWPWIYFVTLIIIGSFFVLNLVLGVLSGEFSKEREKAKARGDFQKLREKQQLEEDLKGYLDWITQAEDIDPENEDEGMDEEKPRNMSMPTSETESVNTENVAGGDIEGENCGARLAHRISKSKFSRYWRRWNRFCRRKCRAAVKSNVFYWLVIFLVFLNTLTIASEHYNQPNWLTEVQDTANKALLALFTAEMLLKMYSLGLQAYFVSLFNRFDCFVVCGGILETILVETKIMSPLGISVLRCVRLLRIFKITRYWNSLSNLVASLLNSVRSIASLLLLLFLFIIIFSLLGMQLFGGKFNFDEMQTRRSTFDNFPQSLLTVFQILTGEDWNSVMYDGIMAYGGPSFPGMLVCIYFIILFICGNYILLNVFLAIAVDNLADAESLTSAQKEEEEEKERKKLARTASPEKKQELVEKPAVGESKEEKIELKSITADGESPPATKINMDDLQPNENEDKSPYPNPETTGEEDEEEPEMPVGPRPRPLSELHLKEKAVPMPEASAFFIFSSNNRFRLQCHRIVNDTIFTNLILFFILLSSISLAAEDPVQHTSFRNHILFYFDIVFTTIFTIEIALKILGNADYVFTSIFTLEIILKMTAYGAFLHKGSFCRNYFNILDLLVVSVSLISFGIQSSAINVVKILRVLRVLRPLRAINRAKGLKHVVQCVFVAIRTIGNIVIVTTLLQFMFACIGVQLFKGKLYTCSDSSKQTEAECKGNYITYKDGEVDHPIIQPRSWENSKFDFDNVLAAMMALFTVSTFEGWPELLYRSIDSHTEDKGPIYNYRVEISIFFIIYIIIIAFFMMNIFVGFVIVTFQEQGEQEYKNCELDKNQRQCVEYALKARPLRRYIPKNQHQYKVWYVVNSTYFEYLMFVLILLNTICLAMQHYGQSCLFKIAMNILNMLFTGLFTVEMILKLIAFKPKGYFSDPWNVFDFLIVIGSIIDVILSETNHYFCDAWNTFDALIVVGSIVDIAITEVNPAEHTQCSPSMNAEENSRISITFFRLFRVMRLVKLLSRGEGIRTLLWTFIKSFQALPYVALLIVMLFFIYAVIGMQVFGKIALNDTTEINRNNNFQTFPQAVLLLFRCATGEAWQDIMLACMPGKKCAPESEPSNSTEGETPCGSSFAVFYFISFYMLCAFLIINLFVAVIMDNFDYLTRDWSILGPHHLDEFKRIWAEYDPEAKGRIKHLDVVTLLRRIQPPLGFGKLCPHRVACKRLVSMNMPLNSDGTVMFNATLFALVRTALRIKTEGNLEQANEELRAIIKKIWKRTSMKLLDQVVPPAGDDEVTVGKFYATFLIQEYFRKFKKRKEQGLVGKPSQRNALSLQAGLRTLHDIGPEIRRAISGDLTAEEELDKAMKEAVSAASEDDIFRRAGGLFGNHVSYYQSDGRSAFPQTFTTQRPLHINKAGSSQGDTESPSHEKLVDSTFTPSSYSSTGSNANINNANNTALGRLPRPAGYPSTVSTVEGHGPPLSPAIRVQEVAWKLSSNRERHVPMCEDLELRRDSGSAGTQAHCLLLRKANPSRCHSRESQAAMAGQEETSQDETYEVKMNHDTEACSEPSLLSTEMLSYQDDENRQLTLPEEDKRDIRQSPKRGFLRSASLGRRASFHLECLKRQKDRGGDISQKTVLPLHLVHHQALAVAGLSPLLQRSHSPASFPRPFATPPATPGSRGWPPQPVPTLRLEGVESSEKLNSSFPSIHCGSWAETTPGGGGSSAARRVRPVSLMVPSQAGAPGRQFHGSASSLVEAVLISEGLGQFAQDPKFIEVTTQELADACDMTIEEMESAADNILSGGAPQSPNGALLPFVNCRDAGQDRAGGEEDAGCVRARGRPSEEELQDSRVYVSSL

Compound O=C(c1ccccc1F)N1CCN(Cc2c(-c3ccc(Br)cc3)nc3ccccn23)CC1 [BAY 1000493, (4-{[2-(4-bromophenyl)imidazo[1,2-a]pyridin-3-yl]methyl}vpiperazin-1-yl)(2-fluorophenyl)methanone] has an IC50 [1] of over 30 µM, an IC50 [2] of over 30 µM and an IC50 [3] of over 30 µM. It also gave an IC50 [4] of 19 µM, an IC50 [5] of over 30 µM and an IC50 [6] of over 30 µM. The IC50 [7] was over 30 µM.
